Data set [1] can be described thus: Cytotoxicity against human HeLa cells. The data set is classed as cell-based.
The next data set has as its system Punta Toro virus. The data set is described as follows: Antiviral activity against […] infected in african green monkey Vero cells assessed as reduction of virus-induced cytopathogenicity. The data set is classed as functional, organism-based. On the technique in general: Cytopathic effects are the visible damage that an infection or toxin causes in cultured cells.

Data set [2] can be described thus: Cytotoxicity against cat CRFK cells. It is filed as cell-based, Felis catus. The settings on record: crfk.
A short description of data set [3]: Cytotoxicity against human HEL cells. The data set is classed as cell-based.
Data set [4] relates to Cytomegalovirus. The experiment in a line: Antiviral activity against Cytomegalovirus AD-169 infected in human HEL cells assessed as reduction of plaque formation. It is filed as functional, organism-based. The settings on record: Human betaherpesvirus 5, AD-169, HEL.
Data set [5] in a line: Inhibition of beta-hematin formation at 1 mg/ml. It is filed as functional.
Data set [6] concerns Plasmodium falciparum. The data set is described as follows: Antimalarial activity against chloroquine-sensitive Plasmodium falciparum D10 by two-fold dilution technique. The data set is classed as functional, organism-based.
A further data set has as its system Felid alphaherpesvirus 1. The experiment in a line: Antiviral activity against feline herpesvirus infected in cat CRFK cells assessed as reduction of virus-induced cytopathogenicity by MTS assay. The data set is classed as functional, organism-based. Particulars: Felid alphaherpesvirus 1, CRFK.
The test system of data set [7] is Coxsackievirus. The data set is described as follows: Antiviral activity against Coxsackievirus B4 infected in human HeLa cells assessed as reduction of virus-induced cytopathogenicity. It is filed as functional, organism-based.
For data set [8], the system named is Coxsackievirus. The data set is described as follows: Antiviral activity against Coxsackievirus B4 infected in african green monkey Vero cells assessed as reduction of virus-induced cytopathogenicity. It is filed as functional, organism-based.
Data set [9] relates to Respiratory syncytial virus. The experiment in a line: Antiviral activity against Respiratory syncytial virus infected in human HeLa cells assessed as reduction of virus-induced cytopathogenicity. It is filed as functional, organism-based.
The subject of data set [10] is Cytomegalovirus. The experiment in a line: Antiviral activity against Cytomegalovirus Davis infected in human HEL cells assessed as reduction of plaque formation. It is filed as functional, organism-based. The settings on record: Human betaherpesvirus 5, Davis.
The subject of data set [11] is Human alphaherpesvirus 3. The experiment in a line: Antiviral activity against […] Varicella-zoster virus 07-1 infected in human HEL cells assessed as reduction of plaque formation. It is filed as functional, organism-based. Particulars: Human alphaherpesvirus 3, 07-1, HEL.
Data set [12] relates to Vesicular stomatitis virus. The experiment in a line: Antiviral activity against Vesicular stomatitis virus infected in human HEL cells assessed as reduction of virus-induced cytopathogenicity. It is filed as functional, organism-based.
Data set [13] is described as follows: Cytotoxicity against african green monkey Vero cells. Particulars: chlorocebus sabaeus. The data set is classed as cell-based.
A further data set has as its system Influenza B virus. The experiment in a line: Antiviral activity against influenza B virus infected in dog MDCK cells assessed as reduction of virus-induced cytopathogenicity by MTS assay. The data set is classed as functional, organism-based.
Data set [14] relates to Human alphaherpesvirus 3. The experiment in a line: Antiviral activity against TK-positive Varicella-zoster virus OKA infected in human HEL cells assessed as reduction of plaque formation. The data set is classed as functional, cell-based. Particulars: Human alphaherpesvirus 3, strain Oka vaccine.
Another data set has as its system Sindbis virus. The experiment in a line: Antiviral activity against Sindbis virus infected in african green monkey Vero cells assessed as reduction of virus-induced cytopathogenicity. The data set is classed as functional, organism-based.
The next data set concerns Feline coronavirus. The experiment in a line: Antiviral activity against Feline coronavirus infected in cat CRFK cells assessed as reduction of virus-induced cytopathogenicity by MTS assay. It is filed as functional, organism-based. The settings on record: Alphacoronavirus 1, CRFK.
The subject of data set [15] is Influenza A virus. The data set is described as follows: Antiviral activity against influenza A virus […] subtype infected in dog MDCK cells assessed as reduction of virus-induced cytopathogenicity by MTS assay. It is filed as functional, organism-based.
For data set [16], the system named is Vesicular stomatitis virus. The experiment in a line: Antiviral activity against Vesicular stomatitis virus infected in human HeLa cells assessed as reduction of virus-induced cytopathogenicity. It is filed as functional, organism-based.
The next data set concerns Human respirovirus 3. The experiment in a line: Antiviral activity against Parainfluenza-3 virus infected in african green monkey Vero cells assessed as reduction of virus-induced cytopathogenicity. The data set is classed as functional, organism-based. The settings on record: Human respirovirus 3, Vero.
The subject of data set [17] is Mammalian orthoreovirus 1. The experiment in a line: Antiviral activity against Reovirus-1 infected in african green monkey Vero cells assessed as reduction of virus-induced cytopathogenicity. The settings on record: Mammalian orthoreovirus 1, Vero. It is filed as functional, organism-based.
Data set [18] relates to Human alphaherpesvirus 1. The experiment in a line: Antiviral activity against TK-negative Herpes simplex virus 1 KOS infected in human HEL cells assessed as reduction of virus-induced cytopathogenicity. It is filed as functional, organism-based. The settings on record: Human alphaherpesvirus 1, KOS.
In data set [19] the test system is Influenza A virus. The experiment in a line: Antiviral activity against influenza A virus H1N1 subtype infected in dog MDCK cells assessed as reduction of virus-induced cytopathogenicity by MTS assay. The data set is classed as functional, organism-based.
Data set [20] concerns Human alphaherpesvirus 1. The experiment in a line: Antiviral activity against Herpes simplex virus-1 KOS infected in human HEL cells assessed as reduction of virus-induced cytopathogenicity. It is filed as functional, organism-based. Particulars: Human alphaherpesvirus 1, KOS.
The test system of another data set is Human alphaherpesvirus 2. The experiment in a line: Antiviral activity against Herpes simplex virus-2 G infected in human HEL cells assessed as reduction of virus-induced cytopathogenicity. Particulars: Human alphaherpesvirus 2, strain G. The data set is classed as functional, organism-based.
The next data set has as its system MDCK. The experiment in a line: (§1) Cytotoxicity against MDCK cells assessed as cell viability after 4 days by MTS assay. It is filed as cell-based, Canis lupus familiaris. The settings on record: dog, mdck, 96 h.
Data set [21] can be described thus: as §1. The data set is classed as cell-based, Canis lupus familiaris. Particulars: dog, MDCK cells.
Data set [22] deals with Plasmodium falciparum. The data set is described as follows: Antimalarial activity against chloroquine-resistant Plasmodium falciparum Dd2. It is filed as functional, organism-based.
The nature of data set [23]: Selectivity index, ratio of CC50 for MDCK cells to IC50 for chloroquine-resistant Plasmodium falciparum Dd2. It is filed as functional.

For `CCOC(=O)c1c(C)nc(NCCCCNc2ccnc3cc(Cl)ccc23)nc1-c1ccc(F)cc1`, the MCC in data set [1] was over 100 µM; in [3], at least 20 µM; in data set [13] it was 20 µM. The EC50 with Punta Toro virus was over 4 µM; in the data set on Cytomegalovirus [4] it was over 4 µM; in the data set on Felid alphaherpesvirus 1 it was over 100 µM; with Coxsackievirus [7], over 100 µM; with Coxsackievirus [8], over 4 µM; in data set [9], over 100 µM. Besides, the concentration giving a half-maximal response (EC50) is over 4 µM in the data set on Cytomegalovirus [10]; over 4 µM in the data set with Human alphaherpesvirus 3 [11]; over 100 µM in [12]; over 4 µM with Influenza B virus; over 4 µM in the data set with Human alphaherpesvirus 3 [14]; over 4 µM with Sindbis virus. Besides, the EC50 in the data set on Feline coronavirus is over 100 µM; with Influenza A virus [15] (read-out: EC50), over 4 µM; in data set [16] it was over 100 µM; with Human respirovirus 3 it was over 4 µM; in data set [17], over 4 µM; with Human alphaherpesvirus 1 [18], over 100 µM. Also, the concentration for a half-maximal effect (EC50) with Influenza A virus [19] was over 4 µM; with Human alphaherpesvirus 1 [20], over 100 µM; in the data set with Human alphaherpesvirus 2, over 100 µM. In addition, the CC50 in data set [2] was over 100 µM; with MDCK, 11.4 µM. Besides, in data set [5], the inhibition was found to be 59%. The same compound returned an IC50 in the data set with Plasmodium falciparum [6] of 2.76 µM. Besides, in data set [21], the MCC at 96 h turned out to be 20 µM.
As for `CCOC(=O)c1c(C)nc(NCCCCNc2ccnc3cc(Cl)ccc23)nc1-c1ccc(Cl)cc1`, the MCC was over 100 µM in data set [1], 20 µM in [3] and 4 µM in [13]. The EC50 in the data set on Punta Toro virus was over 0.8 µM; in the data set on Cytomegalovirus [4], over 4 µM; with Felid alphaherpesvirus 1 it was over 100 µM; in the data set with Coxsackievirus [7], over 100 µM; in the data set with Coxsackievirus [8] it was over 0.8 µM; in [9], over 100 µM. Further, the EC50 is over 4 µM with Cytomegalovirus [10]; over 4 µM in the data set on Human alphaherpesvirus 3 [11]; over 20 µM in [12]; over 0.8 µM in the data set with Influenza B virus; over 4 µM in the data set on Human alphaherpesvirus 3 [14]; over 0.8 µM with Sindbis virus. Moreover, the concentration giving a half-maximal response (EC50) was over 100 µM in the data set with Feline coronavirus; over 0.8 µM with Influenza A virus [15] (read-out: EC50); over 100 µM in data set [16]; over 0.8 µM in the data set on Human respirovirus 3; over 0.8 µM in [17]; over 20 µM in the data set with Human alphaherpesvirus 1 [18]. The EC50 is over 0.8 µM in the data set on Influenza A virus [19], over 20 µM with Human alphaherpesvirus 1 [20] and over 20 µM in the data set with Human alphaherpesvirus 2. For the same compound, the results for the CC50 (in data set [2]; with MDCK) were over 100 µM and 2.2 µM, respectively. Moreover, the inhibition in data set [5] stood at 56%. Besides, in the data set on Plasmodium falciparum [6], half-maximal inhibition (IC50) required 1.93 µM. In data set [21], the MCC at 96 h was at least 0.8 µM.
On to `CCOC(=O)c1c(C)nc(OCCCNc2ccnc3cc(Cl)ccc23)nc1-c1ccccc1`, for which the MCC is over 100 µM in data set [1], over 4 µM in data set [3] and 100 µM in data set [13]. In addition, the EC50 is over 20 µM in the data set with Punta Toro virus; 2 µM in the data set with Cytomegalovirus [4]; over 100 µM in the data set with Felid alphaherpesvirus 1; over 100 µM in the data set on Coxsackievirus [7]; over 20 µM in the data set on Coxsackievirus [8]; over 100 µM in data set [9]. Also, the EC50 in the data set on Cytomegalovirus [10] was 2.53 µM; with Human alphaherpesvirus 3 [11] it was over 4 µM; in data set [12], over 100 µM; in the data set with Influenza B virus, over 4 µM; with Human alphaherpesvirus 3 [14] it was over 4 µM; in the data set with Sindbis virus, over 20 µM. The EC50 in the data set with Feline coronavirus was over 100 µM; with Influenza A virus [15] (read-out: EC50), over 4 µM; in [16], over 100 µM; in the data set with Human respirovirus 3 it was over 20 µM; in data set [17] it was over 20 µM; with Human alphaherpesvirus 1 [18] it was over 100 µM. The 50% effective concentration (EC50) in the data set with Influenza A virus [19] is over 4 µM; with Human alphaherpesvirus 1 [20], over 100 µM; in the data set on Human alphaherpesvirus 2 it was over 100 µM. For the same compound, the results for the 50% cytotoxic concentration (CC50) (in [2]; with MDCK) were over 100 µM and 21.1 µM, respectively. Besides, in data set [5], the inhibition worked out at 87%. Further, the half-maximal inhibitory concentration (IC50) in the data set on Plasmodium falciparum [22] turned out to be 0.483 µM. The MCC at 96 h in [21] was 20 µM. The “Ratio CC50/IC50” value in data set [23] is given as 43.6.
In the case of `NC12CC3CC(CC(C3)C1)C2` [AMANTADINE], the EC50 in the data set on Influenza B virus was over 200 µM; in the data set with Influenza A virus [15] it was 0.3 µM; in the data set on Influenza A virus [19], 17 µM. Also, the MCC at 96 h in data set [21] is over 200 µM.
Take `C[C@H]1[C@H](OC(=O)CCC(=O)O)O[C@@H]2O[C@@]3(C)CC[C@H]4[C@H](C)CC[C@@H]1[C@@]24OO3` [ARTESUNATE]: the IC50 in the data set on Plasmodium falciparum [22] amounted to 0.0312 µM.
Regarding `NC(=O)c1ncn([C@@H]2O[C@H](CO)[C@@H](O)[C@H]2O)n1` [RIBAVIRIN], the MCC in data set [1] and in data set [13] was over 250 µM in each case. Moreover, the EC50 was 112 µM in the data set on Coxsackievirus [7]; over 250 µM in the data set with Coxsackievirus [8]; 2.8 µM with Influenza B virus; over 250 µM in the data set with Sindbis virus; 1.1 µM with Influenza A virus [15] (read-out: EC50); 146 µM with Human respirovirus 3. The EC50 in data set [17] is over 250 µM; in the data set with Influenza A virus [19] it was 2.5 µM. In addition, the MCC at 96 h in [21] is over 100 µM.
`CS(=O)(=O)c1ccc(-c2cnc(N)c(-c3ccc(C(F)(F)F)nc3)c2)cc1` [MMV-048] returned an IC50 with Plasmodium falciparum [22] of 0.0178 µM.

The term EC50 denotes the concentration giving half of the maximal effect. Usually CC50 stands for the concentration at which the toxic effect on the cells reaches its halfway point. The inhibition is the share of the control response that was lost under treatment. Broadly, the IC50 is the concentration at which inhibition is half-maximal.

For the origin of these results see ChEMBL document CHEMBL2417501, “Synthesis of 4-aminoquinoline-pyrimidine hybrids as potent antimalarials and their mode of action studies” (Eur J Med Chem, 2013).
